# Assay results as given in PubChem BioAssay AID2060617 (Molecular Pharmacology Branch, DTP, NCI, 2025).
# “And” between values parts separate entries of the source, which are not always exact repeats. Identical values can stand only once.
# Test system: 485368-065-R4-J2-PDC spheroids with HUVEC/MSC, viability
# Experiment: Anticancer human tumor 485368-065-R4-J2-PDC patient-derived pancreatic carcinoma cell line growth inhibition [CLK]
# Details: for viability, T/C: stronger effect = lower value
# Summary of the method: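 Multi-cell-type spheroids combined patient-derived tumor cells with HUVEC endothelial cells and human mesenchymal stem cells. Paired agents were dosed in half-log steps down from about clinical Cmax, or from 10 microM where Cmax was unknown.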
# [1] = curve of first compound, second compound 0.0316 µM
# [2] = curve of first compound, second compound 0.1 µM
# [3] = curve of first compound, second compound 0.316 µM
# [4] = curve of first compound, second compound 1 µM
# [5] = curve of first compound, second compound 3.16 µM
# [6] = curve of first compound, second compound 10 µM
# [7] = second compound 0.0316 µM, first compound 0.0316 µM
# [8] = second compound 0.0316 µM, first compound 0.1 µM
# [9] = second compound 0.0316 µM, first compound 0.316 µM
# [10] = second compound 0.0316 µM, first compound 1 µM
# [11] = second compound 0.0316 µM, first compound 3.16 µM
# [12] = second compound 0.0316 µM, first compound 10 µM
# [13] = second compound 0.1 µM, first compound 0.0316 µM
# [14] = second compound 0.1 µM, first compound 0.1 µM
# [15] = second compound 0.1 µM, first compound 0.316 µM
# [16] = second compound 0.1 µM, first compound 1 µM
# [17] = second compound 0.1 µM, first compound 3.16 µM
# [18] = second compound 0.1 µM, first compound 10 µM
# [19] = second compound 0.316 µM, first compound 0.0316 µM
# [20] = second compound 0.316 µM, first compound 0.1 µM
# [21] = second compound 0.316 µM, first compound 0.316 µM
# [22] = second compound 0.316 µM, first compound 1 µM
# [23] = second compound 0.316 µM, first compound 3.16 µM
# [24] = second compound 0.316 µM, first compound 10 µM
# [25] = second compound 1 µM, first compound 0.0316 µM
# [26] = second compound 1 µM, first compound 0.1 µM
# [27] = second compound 1 µM, first compound 0.316 µM
# [28] = second compound 1 µM, first compound 1 µM
# [29] = second compound 1 µM, first compound 3.16 µM
# [30] = second compound 1 µM, first compound 10 µM
# [31] = second compound 3.16 µM, first compound 0.0316 µM
# [32] = second compound 3.16 µM, first compound 0.1 µM
# [33] = second compound 3.16 µM, first compound 0.316 µM
# [34] = second compound 3.16 µM, first compound 1 µM
# [35] = second compound 3.16 µM, first compound 3.16 µM
# [36] = second compound 3.16 µM, first compound 10 µM
# [37] = second compound 10 µM, first compound 0.0316 µM
# [38] = second compound 10 µM, first compound 0.1 µM
# [39] = second compound 10 µM, first compound 0.316 µM
# [40] = second compound 10 µM, first compound 1 µM
# [41] = second compound 10 µM, first compound 3.16 µM
# [42] = second compound 10 µM, first compound 10 µM
# 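Note: spheroids exposed to compounds for seven days.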
# 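Throughout, for viability, T/C: 100% = DMSO vehicle control wells.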
smiles,measurement,setting,value
Nc1ccccc1NC(=O)c1ccc(CNC(=O)OCc2cccnc2)cc1 + CNC(=O)c1ccc(Nc2nc(OC3CCCC3)c3c(-c4ccc5nc(C)oc5c4)c[nH]c3n2)c(OC)c1,IC50,[1],6710 nM
same,IC50,[2],6550 nM
same,IC50,[3],6730 nM
same,IC50,[4],5720 nM
same,IC50,[5],5100 nM
same,IC50,[6],5510 nM
same,"viability, T/C",[7],89.6%
same,"viability, T/C",[8],96.7%
same,"viability, T/C",[9],94.7%
same,"viability, T/C",[10],90.3%
same,"viability, T/C",[11],82.8%
same,"viability, T/C",[12],32.4%
same,"viability, T/C",[13],92.1%
same,"viability, T/C",[14],93.8%
same,"viability, T/C",[15],102%
same,"viability, T/C",[16],87.3%
same,"viability, T/C",[17],81.7%
same,"viability, T/C",[18],31.9%
same,"viability, T/C",[19],74.4%
same,"viability, T/C",[20],79.8%
same,"viability, T/C",[21],83.9%
same,"viability, T/C",[22],89.7%
same,"viability, T/C",[23],83.2%
same,"viability, T/C",[24],33.1%
same,"viability, T/C",[25],86%
same,"viability, T/C",[26],80.8%
same,"viability, T/C",[27],71.3%
same,"viability, T/C",[28],77.9%
same,"viability, T/C",[29],70.6%
same,"viability, T/C",[30],30.6%
same,"viability, T/C",[31],71.5%
same,"viability, T/C",[32],74.8%
same,"viability, T/C",[33],72.2%
same,"viability, T/C",[34],65.9%
same,"viability, T/C",[35],65.6%
same,"viability, T/C",[36],29.3%
same,"viability, T/C",[37],67.6%
same,"viability, T/C",[38],73.9%
same,"viability, T/C",[39],67.8%
same,"viability, T/C",[40],73.6%
same,"viability, T/C",[41],69.8%
same,"viability, T/C",[42],28.6%
Nc1ccccc1NC(=O)c1ccc(CNC(=O)OCc2cccnc2)cc1,"viability, T/C",compound 0.0316 µM,83.9% and 90.3%
same,"viability, T/C",compound 0.1 µM,105% and 96.6%
same,"viability, T/C",compound 0.316 µM,94.3% and 91.9%
same,"viability, T/C",compound 1 µM,92.6% and 90.3%
same,"viability, T/C",compound 3.16 µM,88.2% and 84.8%
same,"viability, T/C",compound 10 µM,31.5% and 37%
same,IC50,curve of compound,6870 nM and 7340 nM
O=c1[nH]cc(F)c(=O)[nH]1 + CN1CCN(c2cc(C(=O)Nc3cc4cc(-c5cnn(C)c5)ccc4cn3)ccn2)CC1,IC50,[1],> 10000 nM
same,IC50,[2],> 10000 nM
same,IC50,[3],> 10000 nM
same,IC50,[4],< 31.6 nM
same,IC50,[5],< 31.6 nM
same,IC50,[6],< 31.6 nM
same,"viability, T/C",[7],99.3%
same,"viability, T/C",[8],108%
same,"viability, T/C",[9],102%
same,"viability, T/C",[10],112%
same,"viability, T/C",[11],99.6%
same,"viability, T/C",[12],82%
same,"viability, T/C",[13],106%
same,"viability, T/C",[14],114%
same,"viability, T/C",[15],115%
same,"viability, T/C",[16],110%
same,"viability, T/C",[17],114%
same,"viability, T/C",[18],81.8%
same,"viability, T/C",[19],90%
same,"viability, T/C",[20],89.7%
same,"viability, T/C",[21],87.6%
same,"viability, T/C",[22],91.8%
same,"viability, T/C",[23],101%
same,"viability, T/C",[24],62%
same,"viability, T/C",[25],1.1%
same,"viability, T/C",[26],1.31%
same,"viability, T/C",[27],0.78%
same,"viability, T/C",[28],0.63%
same,"viability, T/C",[29],0.79%
same,"viability, T/C",[30],1.51%
same,"viability, T/C",[31],1.14%
same,"viability, T/C",[32],2.13%
same,"viability, T/C",[33],1.09%
same,"viability, T/C",[34],1.94%
same,"viability, T/C",[35],1.84%
same,"viability, T/C",[36],2%
same,"viability, T/C",[37],1.01%
same,"viability, T/C",[38],2.05%
same,"viability, T/C",[39],2.31%
same,"viability, T/C",[40],1.29%
same,"viability, T/C",[41],1.06%
same,"viability, T/C",[42],1.21%
COc1c(OCCCN2CCOCC2)ccc2c3n(c(=NC(=O)c4cnc(N)nc4)nc12)CCN3 + CN1CCN(c2cc(C(=O)Nc3cc4cc(-c5cnn(C)c5)ccc4cn3)ccn2)CC1,IC50,[1],245 nM
same,IC50,[2],117 nM
same,IC50,[3],22 nM
same,IC50,[4],< 3.16 nM
same,IC50,[5],< 3.16 nM
same,IC50,[6],< 3.16 nM
same,"viability, T/C","second compound 0.0316 µM, first compound 0.00316 µM",102%
same,"viability, T/C","second compound 0.0316 µM, first compound 0.01 µM",113%
same,"viability, T/C",[7],85.8%
same,"viability, T/C",[8],71.3%
same,"viability, T/C",[9],42%
same,"viability, T/C",[10],37.8%
same,"viability, T/C","second compound 0.1 µM, first compound 0.00316 µM",93.7%
same,"viability, T/C","second compound 0.1 µM, first compound 0.01 µM",99.9%
same,"viability, T/C",[13],82.7%
same,"viability, T/C",[14],53.7%
same,"viability, T/C",[15],32.4%
same,"viability, T/C",[16],33.2%
same,"viability, T/C","second compound 0.316 µM, first compound 0.00316 µM",69.4%
same,"viability, T/C","second compound 0.316 µM, first compound 0.01 µM",61.1%
same,"viability, T/C",[19],45.1%
same,"viability, T/C",[20],22.4%
same,"viability, T/C",[21],16.4%
same,"viability, T/C",[22],22.5%
same,"viability, T/C","second compound 1 µM, first compound 0.00316 µM",2.4%
same,"viability, T/C","second compound 1 µM, first compound 0.01 µM",1.65%
same,"viability, T/C",[25],1.92%
same,"viability, T/C",[26],0.96%
same,"viability, T/C",[27],1.07%
same,"viability, T/C",[28],5.51%
same,"viability, T/C","second compound 3.16 µM, first compound 0.00316 µM",1.02%
same,"viability, T/C","second compound 3.16 µM, first compound 0.01 µM",2.04%
same,"viability, T/C",[31],1.56%
same,"viability, T/C",[32],1.95%
same,"viability, T/C",[33],2.07%
same,"viability, T/C",[34],1.38%
same,"viability, T/C","second compound 10 µM, first compound 0.00316 µM",1.34%
same,"viability, T/C","second compound 10 µM, first compound 0.01 µM",2.28%
same,"viability, T/C",[37],3.18%
same,"viability, T/C",[38],3.27%
same,"viability, T/C",[39],2.35%
same,"viability, T/C",[40],2%
C=CC(=O)N1CCN(c2nc(=O)n(-c3c(C)ccnc3C(C)C)c3nc(-c4c(O)cccc4F)c(F)cc23)C(C)C1 (centres undefined),"viability, T/C",compound 0.0316 µM,96.8% and 96.9%
same,"viability, T/C",compound 0.1 µM,96.4% and 107%
same,"viability, T/C",compound 0.316 µM,99.8% and 100%
same,"viability, T/C",compound 1 µM,97.9% and 106%
same,"viability, T/C",compound 3.16 µM,92.3% and 88.3%
same,"viability, T/C",compound 10 µM,89.2% and 93.7%
same,IC50,curve of compound,> 10000 nM
COc1cccc2c1C(=O)c1c(O)c3c(c(O)c1C2=O)CC(O)(C(=O)CO)CC3OC1CC(N)C(O)C(C)O1 (centres undefined) + CNC(=O)c1ccc(Nc2nc(OC3CCCC3)c3c(-c4ccc5nc(C)oc5c4)c[nH]c3n2)c(OC)c1,IC50,[1],445 nM
same,IC50,[2],406 nM
same,IC50,[3],270 nM
same,IC50,[4],156 nM
same,IC50,[5],136 nM
same,IC50,[6],111 nM
same,"viability, T/C",[7],89.3%
same,"viability, T/C",[8],94.2%
same,"viability, T/C",[9],56.9%
same,"viability, T/C",[10],31.6%
same,"viability, T/C",[11],8.22%
same,"viability, T/C",[12],23.9%
same,"viability, T/C",[13],101%
same,"viability, T/C",[14],100%
same,"viability, T/C",[15],55.9%
same,"viability, T/C",[16],26.9%
same,"viability, T/C",[17],7.71%
same,"viability, T/C",[18],22.3%
same,"viability, T/C",[19],101%
same,"viability, T/C",[20],86.2%
same,"viability, T/C",[21],45%
same,"viability, T/C",[22],18.6%
same,"viability, T/C",[23],6.61%
same,"viability, T/C",[24],25.7%
same,"viability, T/C",[25],91%
same,"viability, T/C",[26],66%
same,"viability, T/C",[27],25.1%
same,"viability, T/C",[28],11.3%
same,"viability, T/C",[29],6.11%
same,"viability, T/C",[30],23.9%
same,"viability, T/C",[31],76.6%
same,"viability, T/C",[32],61.7%
same,"viability, T/C",[33],17.9%
same,"viability, T/C",[34],8.87%
same,"viability, T/C",[35],6.5%
same,"viability, T/C",[36],15.5%
same,"viability, T/C",[37],76.6%
same,"viability, T/C",[38],53.4%
same,"viability, T/C",[39],17.2%
same,"viability, T/C",[40],7.28%
same,"viability, T/C",[41],7.64%
same,"viability, T/C",[42],17.4%
CC(Nc1ccc2c(c1)OCCn1cc(N3C(=O)OCC3C(F)F)nc1-2)C(N)=O (centres undefined),"viability, T/C",compound 0.0316 µM,95.1% and 99.5%
same,"viability, T/C",compound 0.1 µM,102% and 117%
same,"viability, T/C",compound 0.316 µM,116% and 105%
same,"viability, T/C",compound 1 µM,100% and 102%
same,"viability, T/C",compound 3.16 µM,91.4% and 89.5%
same,"viability, T/C",compound 10 µM,86.5% and 79.1%
same,IC50,curve of compound,> 10000 nM
